“Also recorded” adds a separate entry of the source.
Columns and labels:
[1] = test system: diet-induced obesity (DIO) mice; experiment: Chronic oral treatment of diet-induced obesity (DIO) mice; type: in vivo; conditions: for glucose tolerance and insulin sensitivity (GTT, ITT): DIO mice, PO 5 weeks
Experimental: FIGS. 2A-2G are graphs illustrating the reduction of diet-induced obesity and improvement in metabolic homeostasis with fexaramine Mice were fed a high fat diet (HFD) for 14 weeks and then administered daily oral injections of vehicle (open boxes) or fexaramine (100 mg/kg) (solid boxes) for 5 weeks with HFD. Data represent the mean±STD. Statistical analysis was performed with the Student's t test (*p<0.05, **p<0.01).
FIG. 4A is a line graph showing the effects of fexaramine at various dosage levels on the body weight of mice fed a HFD for 14 weeks and then administered daily oral injections of vehicle or fexaramine (10, 50 or 100 mg/kg) for 5 weeks with HFD. Data represent the mean±STD. Statistical analysis was performed with the Student's t test (*p<0.05, **p<0.01).
Mice were fed HFD for 14 weeks and then administered vehicle or fexaramine (100 mg/kg) daily by oral administration for 5 weeks with HFD. Data represent the mean±STD. Statistical analysis was performed with the Student's t test (*p<0.05, **p<0.01).
The physiological effects of fexaramine in established obesity (diet-induced obesity, DIO) models were evaluated. C57BL/6J mice were fed a diet of 60% fat for 14 weeks and then treated PO with vehicle or fexaramine (100 mg/kg) for 5 weeks.

FXR-null mice = experiment: HFD-fed FXR-null mice; type: in vivo; conditions: 100 mg/kg 5 weeks
Experimental: Data represent the mean±SD. Statistical analysis was performed with the Student's t test. *p<0.05, **p<0.01.

[2] = LC/MS quantification of serum fexaramine after PO or IP; type: in vivo, mice
Experimental: FIG. 1D is a schematic diagram illustrating an experimental procedure used to evaluate fexaramine, where mice were treated with vehicle or fexaramine (100 mg/kg) via PO or IP injection, and LC/MS quantification of serum fexaramine was conducted five days later.
FIG. 1E is a bar chart illustrating serum fexaramine concentrations after administration as described in FIG. 1D. Data represent mean values±STD. Statistical analysis was performed with the Student's t test (*p<0.05, **p<0.01).
(§1) Upon exploration of the in vivo effects of fexaramine (Fex) administration, it was discovered that due to ineffectual absorption, oral (PO) and intraperitoneal (IP) drug delivery produced very different effects (FIGS. 1D and 1E).

DIO mice = experiment: Hyperinsulinemic-euglycemic clamp in DIO mice; type: in vivo
Experimental: FIGS. 15I-15K are a line graph and two bar graphs showing the effect of fexaramine treatment on body weight, insulin-stimulated GDR, and fasting insulin levels. Mice were fed HFD for 14 weeks, and then administered daily oral injections of vehicle or fexaramine (100 mg/kg) for 3 weeks with HFD. The mice treated with fexaramine were initially heavier (by 2-3 grams). Three weeks after treatment, a clamp study was performed on the mice. Data represent the mean±STD. Statistical analysis was performed with the Student's t test (*p<0.05, **p<0.01).

TGR5 null mice = experiment: HFD-fed TGR5-null mice; type: in vivo; conditions: 100 mg/kg/day PO 5 weeks
Experimental: HFD-fed TGR5-null mice were treated with vehicle or fexaramine (100 mg/kg os daily for 5 weeks with HFD, n=10). (A) Ileal FXR target gene expressions (B) Serum BA levels (C) Fasting glucose levels (D) Glucose tolerance test (E) Core body temperature (F) Oxygen consumption rate (G) Carbon dioxide production (H) Gene expression in BAT (I) Body weight curve (J) Body composition by MRI (K) Insulin Tolerance Test (L) Hepatic gene expression (M) Hepatic TG levels (N) and Gene expression in soleus of TGR5 knockout mice with and without fexaramine treatment. For bar graphs, vehicle is left bar, Fex is right bar. Data represent the mean±SD. Statistical analysis was performed with the Student's t test. *p<0.05, **p<0.01.
To address this possibility, HFD-fed TGR5 null mice were chronically treated with Fex (100 mg/kg/day PO for 5 weeks). […] In particular, the anti-lipogenic effects of Fex in the liver appear to require TGR5 activation, as key hepatic lipogenic genes and liver triglyceride content were not affected by Fex treatment (FIGS. 11L, 11M).

[3] = test system: FXR target gene expression; experiment: FXR target gene expression (qPCR) after acute PO or IP treatment; type: in vivo, C57BL/6J mice; conditions: for FXR target genes (IBABP, OSTα, FGF15) in liver or kidney / FXR target genes (IBABP, OSTα, FGF15) in the intestine: PO
Experimental: FIGS. 1A-1C are a comparative expression chart and two bar charts, respectively, illustrating increased levels of FXR target gene expression in the intestine relative to expression in the liver and kidney. 8 week-old C57BL/6J mice were treated with vehicle or fexaramine (100 mg/kg) via oral (PO) or intraperitoneal (IP) injection for three days (FIGS. 1A-1B) or five days (FIG. 1C).
FXR target gene expression was analyzed by qPCR. Gene expression was normalized against a vehicle-treated group.
FIG. 1F is a bar chart illustrating that orally delivered fexaramine is intestinally-restricted. Mice received vehicle or Fexaramine (100 mg/kg) via per os (PO) or intraperitoneal (IP) injection for 5 days. Expression of the FXR target gene SHP after PO or IP injection in selected tissues is shown.
as §1

Question: Which results are given for `COC(=O)/C=C/c1cccc(N(Cc2ccc(-c3ccc(N(C)C)cc3)cc2)C(=O)C2CCCCC2)c1` [fexaramine]?
Answer: ambulatory counts ([1]; 100 mg/kg PO 5 weeks): more active than control mice; intestinal toxicity (histology of ileum and colon) ([1]; 100 mg/kg PO 5 weeks): no signs of intestinal toxicity; overall fat mass (MRI) ([1]; 100 mg/kg PO 5 weeks): reduced overall fat mass; respiratory exchange ratio ([1]; 100 mg/kg PO 5 weeks): No changes; serum lactate levels ([1]; 100 mg/kg PO 5 weeks): significantly decreased; serum levels of inflammatory cytokines TNFα, IL-1α, IL-1β, IL-17 and MCP-1 ([1]; 100 mg/kg PO 5 weeks): markedly decreased; wet weights of subcutaneous (inguinal) and visceral (gonadal and mesenteric) adipose depots ([1]; 100 mg/kg PO 5 weeks): significant reductions; serum lactate levels ([1]; 100 mg/kg PO 5 weeks, listed as Fex): significantly reduced; prevention of weight gain, dose dependence ([1]; 10, 50 or 100 mg/kg PO 5 weeks): dose-dependent manner; glucose tolerance and insulin sensitivity (GTT, ITT) [1]: improved glucose clearance; also recorded: improved insulin sensitivity; glucose tolerance and insulin sensitivity (GTT, ITT) ([1]; listed as Fex): dose-dependent improvements; weight gain ([1]; HFD 14 weeks, then 100 mg/kg PO 5 weeks): prevented weight gain; cross-sectional area of adipocytes in visceral depots (gonadal, mesenteric) ([1]; chronic treatment): markedly reduced; weight gain at the highest dose ([1]; highest dose): almost completely abrogated; accumulation of lipid vesicles in brown adipose tissue (BAT) ([1]; histology): markedly reduced; hepatic triglycerides ([1]; liver): marked decrease; lipid droplets in liver tissue (histology) ([1]; liver): reduction in lipid droplets; serum alanine aminotransferase (ALT) levels ([1]; serum): decreased; glucose, insulin, leptin, cholesterol and resistin levels ([1]; serum, 100 mg/kg PO 5 weeks): reduced glucose, insulin, leptin, cholesterol, and resistin levels; food intake ([1]; versus vehicle-treated control mice): not attributable to difference in food intake; carbon dioxide production (VCO2) ([1]; weight-matched DIO mice): exhaled more carbon dioxide; oxygen consumption (VO2) ([1]; weight-matched DIO mice): consistently higher oxygen consumption; Fex-induced changes in gene expression and improvements in metabolic homeostasis in FXR null mice (FXR-null mice): abrogated; serum Fex level after PO compared to IP ([2]; acute PO vs IP, 100 mg/kg): 10 % of IP levels; absorption after oral delivery ([2]; oral): poorly absorbed; insulin-mediated suppression of HGP (DIO mice; compared to control DIO mice): marked increase; basal HGP, GDR, IS-GDR, FFA suppression and fasting insulin levels (DIO mice; weight-matched cohorts): No differences; FXR target genes in the ileum of TGR5 null mice (TGR5 null mice): induced multiple FXR target genes; core body temperature and metabolic rate in TGR5 null mice (TGR5 null mice): somewhat blunted increases; fasting glucose levels and glucose tolerance in TGR5 null mice (TGR5 null mice): moderate improvements; key hepatic lipogenic genes and liver triglyceride content in TGR5 null mice (TGR5 null mice): not affected; serum BA levels in TGR5 null mice (TGR5 null mice): lowered serum BA levels; weight gain or insulin sensitivity in TGR5 null mice (TGR5 null mice): no significant changes; FXR target gene expression in the liver and kidney after IP injection ([3]; IP, 100 mg/kg, five days): increases FXR target gene expression in the liver and kidney; induction of SHP in liver and kidney ([3]; PO versus IP, 100 mg/kg for five days): only seen in liver and kidney after IP treatment; FXR target genes (IBABP, OSTα, FGF15) in liver or kidney ([3]; 100 mg/kg): not in the liver or kidney; FXR target genes (IBABP, OSTα, FGF15) in the intestine ([3]; 100 mg/kg): substantially enhances FXR target gene expression in the intestine; FXR target genes (IBABP, OSTα, FGF15) in liver or kidney ([3]; 100 mg/kg, listed as Fex): failed to affect the expression of these genes in liver or kidney; FXR target genes (IBABP, OSTα, FGF15) in the intestine ([3]; 100 mg/kg, listed as Fex): induced multiple FXR target genes in the intestine; induction of FXR target gene SHP throughout the intestine ([3]; acute PO and IP, 100 mg/kg for five days): robust induction
